Assay [1] deals with chimeric protein PPARα-GaI4 (Homo sapiens, UniProt Q07869). The conditions noted are these: 50 μM, 18 hours contact, CV-1 cells. The procedure:
(§1) The measurement of the PPAR activation was performed according to a lo technique described by Lehmann et al. (1995, J. Biol. Chem., 270, 12953-12956).
(§2) CV-1 cells (monkey kidney cells) are co-transfected with an expression vector for the chimeric proteins PPARα-GaI4 or PPARγ-GaI4 and with a “reporter” plasmid that allows the expression of the luciferase gene placed under the control of a promoter comprising GaI4 response elements.
(§3) The cells are plated into 96-well microplates and co-transfected using a commercial reagent with the reporter plasmid (pG5-tk-pGL3) and the expression vector for the chimeric protein (PPARα-GaI4 or PPARγ-GaI4). After incubating for 4 hours, whole culture medium (comprising 10% foetal calf serum) is added to the wells. After 24 hours, the medium is removed and replaced with whole medium comprising the test products (50 μM final). The products are left in contact with the cells for 18 hours. The cells are then lysed and the luciferase activity is measured using a luminometer.

For assay [2], the target named is chimeric protein PPARγ-GaI4 (Homo sapiens, UniProt P37231). Conditions: 50 μM, 18 hours contact, CV-1 cells. The procedure:
as §1, §2, §3

A further assay deals with db/db mice. The conditions noted are these: 100 mg/kg/day orally for 15 days. The procedure: The antidiabetic and hypolipidaemiant activity of the compounds was determined orally on db/db mice.
Nine-week-old db/db mice are treated orally for 15 days with the compound of Example 6 (100 mg/kg/day). Each group studied comprises seven animals. After treatment for 15 days, retro-orbital samples are taken under mild anaesthesia and after fasting for four hours.
The following parameters were measured:
Assay of the glycaemia (glucose oxidase) and of the lipid parameters on the sera at D15 (COBAS): triglycerides, total cholesterol (CHOL), HDL cholesterol (HDL-C) and free fatty acids (FFA) (BioMérieux and Waco Chemicals assay kit).
The measurements reported represent mean values±standard error.

Another assay has as its system GaI4 alone. Conditions: vector expressing GaI4 alone, in the presence of the product. The procedure:
as §2, §3

[3] abbreviates: serum at D15, fasted 4 hours, mean ± standard error.

These results are taken from US7465752B2, “Pentenoic acid derivatives, processes for the preparation thereof, pharmaceutical compositions comprising them, and therapeutic applications thereof” (Merck Patent GmbH, priority 2004, dated 2008).

SMILES strings stand for the structures.

chimeric protein PPARα-GaI4, sequence (Q07869 239-466 limits assumed, change not shown): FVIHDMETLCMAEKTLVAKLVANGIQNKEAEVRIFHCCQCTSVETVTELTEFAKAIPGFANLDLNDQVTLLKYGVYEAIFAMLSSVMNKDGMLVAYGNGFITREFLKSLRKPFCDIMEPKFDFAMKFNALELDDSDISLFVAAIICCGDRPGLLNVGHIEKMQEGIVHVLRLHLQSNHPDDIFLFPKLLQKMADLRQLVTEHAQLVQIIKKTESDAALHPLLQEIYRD
chimeric protein PPARγ-GaI4, sequence (P37231 238-503 limits assumed, change not shown): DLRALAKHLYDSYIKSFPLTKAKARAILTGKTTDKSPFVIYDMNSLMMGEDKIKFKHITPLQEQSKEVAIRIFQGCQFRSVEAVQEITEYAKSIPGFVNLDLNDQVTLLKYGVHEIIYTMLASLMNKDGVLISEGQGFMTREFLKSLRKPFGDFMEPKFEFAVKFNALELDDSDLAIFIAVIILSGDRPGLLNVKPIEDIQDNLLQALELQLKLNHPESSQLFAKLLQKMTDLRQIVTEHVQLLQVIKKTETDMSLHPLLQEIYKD

Regarding `O=C(O)[C@@H](CC=Cc1ccccc1)Oc1ccc(-c2cc3ccccc3s2)cc1` (racemic) [Example 6, (R,S)-2-{[4-(benzo[b]thiophen-2-yl)phenyl]oxy}-5-phenylpent-4-enoic acid], in assay [1], the “PPAR activation factor (reporter gene expression relative to control cells)” value amounted to 7. For the same compound, the “PPAR activation factor (reporter gene expression relative to control cells)” value in assay [2] is reported as 21. Moreover, in the assay with db/db mice (D15, not significant), the “FFA, % var. (percentage of variation versus control)” value is reported as −10% (ns). Moreover, in the assay on db/db mice (D15, p < 0.01 versus control), the “CHOL, % var. (percentage of variation versus control)” value is on record as −20% (**); the “Glycaemia, % var. (percentage of variation versus control)” value is on record as −50% (**); the “HDL-C, % var. (percentage of variation versus control)” value was −25% (**). Further, the “Triglycerides, % var. (percentage of variation versus control)” value with db/db mice (D15, p < 0.05 versus control) is on record as −31% (*). Moreover, in the assay on db/db mice (setting [3]), the “CHOL (total cholesterol)” value amounted to 2.98 ± 0.25 mM, the “FFA (free fatty acids)” value was 0.78 ± 0.18 mM, the Glycaemia was 14.93 ± 4.29 Mm and the HDL-C came to 2.31 ± 0.20 Mm. Further, in the assay with db/db mice (setting [3]), the Triglycerides was 1.47 ± 0.59 mM. Also, in the assay on GaI4 alone, the “luciferase activity in absence of the PPAR α or γ ligand binding domain” value is listed as “zero”.
